Laboratory results taken from patent US20230073777A1, “CYCLIC-AMP RESPONSE ELEMENT BINDING PROTEIN (CBP) AND/OR ADENOVIRAL E1A BINDING PROTEIN OF 300 KDA (P300) DEGRADATION COMPOUNDS AND METHODS OF USE” (CULLGEN (SHANGHAI), INC., priority 2019, published 2023).

Legend:
P300 = P300 (Homo sapiens, UniProt Q09472); assay: Immunoblotting of P300 protein levels in LNCaP or 22RV1 cells; type: cell-based; set-up: LNCaP or 22RV1 cells that express CBP/P300 proteins were treated with GNE-781 or the bivalent compounds; endogenous in cells; host or cells: LNCaP (clone FGC) or 22RV1 cells; settings: percentage of inhibition of p300 at 10 nM (Table 3); read-out: Degradation (10 nM)
Summary of the method: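 LNCaP or 22RV1 cells treated with compounds for indicated hours, DMSO as negative control. RIPA lysates resolved by SDS-PAGE and immunoblotted for P300 or CBP, tubulin or vinculin as loading control; chemiluminescent bands quantitated.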

LNCaP cells = assay: LNCaP cell viability assay (CellTiter-Glo); type: cell-based; settings: Homo sapiens, 72 h; LNCaP prostate cancer cell viability inhibition, 3 days, CellTiter-Glo (Table 3)
Summary of the method: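 LNCaP cells, 5000/well, exposed to compounds in 12-point 3-fold serial dilution (top 10 μM) for 3 days. Viability by CellTiter-Glo luminescence, normalized to untreated cells; IC50 by least-squares nonlinear regression.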

Sequence of P300 (Q09472 whole entry): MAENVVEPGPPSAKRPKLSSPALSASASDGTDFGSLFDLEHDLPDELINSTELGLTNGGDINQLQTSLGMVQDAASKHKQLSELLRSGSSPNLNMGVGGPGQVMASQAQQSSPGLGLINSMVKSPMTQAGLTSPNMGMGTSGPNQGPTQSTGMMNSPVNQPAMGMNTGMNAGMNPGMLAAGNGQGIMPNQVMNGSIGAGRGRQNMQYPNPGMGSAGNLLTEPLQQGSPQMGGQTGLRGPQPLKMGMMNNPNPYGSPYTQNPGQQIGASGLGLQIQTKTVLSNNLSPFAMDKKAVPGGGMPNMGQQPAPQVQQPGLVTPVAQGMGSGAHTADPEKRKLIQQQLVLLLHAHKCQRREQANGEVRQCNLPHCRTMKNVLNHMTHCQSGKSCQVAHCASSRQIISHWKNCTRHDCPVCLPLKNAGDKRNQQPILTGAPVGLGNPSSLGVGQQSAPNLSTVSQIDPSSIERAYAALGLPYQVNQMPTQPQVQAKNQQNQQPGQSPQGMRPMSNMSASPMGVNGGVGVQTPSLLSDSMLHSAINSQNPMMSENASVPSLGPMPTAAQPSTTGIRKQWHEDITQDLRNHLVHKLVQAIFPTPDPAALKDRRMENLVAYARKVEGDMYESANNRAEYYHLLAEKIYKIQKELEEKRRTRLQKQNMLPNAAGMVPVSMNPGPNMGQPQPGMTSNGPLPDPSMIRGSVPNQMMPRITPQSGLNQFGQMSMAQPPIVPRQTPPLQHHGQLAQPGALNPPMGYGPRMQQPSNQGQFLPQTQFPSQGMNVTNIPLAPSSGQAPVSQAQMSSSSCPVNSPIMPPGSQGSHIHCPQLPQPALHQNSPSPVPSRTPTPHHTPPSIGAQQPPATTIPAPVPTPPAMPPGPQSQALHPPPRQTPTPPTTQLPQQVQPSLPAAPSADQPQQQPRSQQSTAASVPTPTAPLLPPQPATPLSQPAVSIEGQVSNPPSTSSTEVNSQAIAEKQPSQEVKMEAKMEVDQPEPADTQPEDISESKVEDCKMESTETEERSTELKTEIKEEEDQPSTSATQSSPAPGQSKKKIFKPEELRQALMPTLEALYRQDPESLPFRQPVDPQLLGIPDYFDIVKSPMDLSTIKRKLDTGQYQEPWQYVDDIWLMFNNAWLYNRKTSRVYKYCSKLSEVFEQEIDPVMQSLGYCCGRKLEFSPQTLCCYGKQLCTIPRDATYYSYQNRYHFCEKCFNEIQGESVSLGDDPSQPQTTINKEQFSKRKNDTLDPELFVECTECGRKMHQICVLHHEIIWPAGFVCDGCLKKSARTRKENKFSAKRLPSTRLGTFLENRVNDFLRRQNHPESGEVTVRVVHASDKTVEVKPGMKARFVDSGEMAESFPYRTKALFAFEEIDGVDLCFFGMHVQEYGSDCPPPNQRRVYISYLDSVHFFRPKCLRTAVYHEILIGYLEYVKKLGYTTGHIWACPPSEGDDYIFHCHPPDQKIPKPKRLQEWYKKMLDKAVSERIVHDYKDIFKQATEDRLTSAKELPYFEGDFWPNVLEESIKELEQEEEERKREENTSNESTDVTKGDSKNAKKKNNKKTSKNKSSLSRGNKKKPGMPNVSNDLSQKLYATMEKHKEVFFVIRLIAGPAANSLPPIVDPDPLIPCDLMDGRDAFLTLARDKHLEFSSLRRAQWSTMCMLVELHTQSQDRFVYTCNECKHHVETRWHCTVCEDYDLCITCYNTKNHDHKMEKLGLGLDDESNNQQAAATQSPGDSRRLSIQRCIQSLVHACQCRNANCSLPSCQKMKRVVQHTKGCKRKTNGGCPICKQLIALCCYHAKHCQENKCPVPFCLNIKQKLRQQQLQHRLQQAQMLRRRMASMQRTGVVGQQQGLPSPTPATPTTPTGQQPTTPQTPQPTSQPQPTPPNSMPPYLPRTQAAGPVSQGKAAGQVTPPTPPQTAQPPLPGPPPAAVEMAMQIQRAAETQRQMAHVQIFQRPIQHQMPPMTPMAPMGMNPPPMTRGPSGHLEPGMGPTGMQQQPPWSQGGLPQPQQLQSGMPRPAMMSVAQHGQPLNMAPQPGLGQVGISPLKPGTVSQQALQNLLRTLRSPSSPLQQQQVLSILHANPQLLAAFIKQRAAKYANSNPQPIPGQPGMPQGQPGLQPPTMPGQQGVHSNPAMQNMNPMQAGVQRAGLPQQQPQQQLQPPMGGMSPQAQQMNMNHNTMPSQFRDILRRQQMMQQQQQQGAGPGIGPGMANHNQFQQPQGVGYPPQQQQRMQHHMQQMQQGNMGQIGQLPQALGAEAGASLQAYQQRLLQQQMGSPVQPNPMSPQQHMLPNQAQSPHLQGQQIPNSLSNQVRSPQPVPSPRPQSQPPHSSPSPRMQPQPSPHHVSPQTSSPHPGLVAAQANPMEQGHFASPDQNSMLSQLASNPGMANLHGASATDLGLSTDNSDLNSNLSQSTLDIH

| SMILES | inhibition at 0.01 µM (P300) | IC50 (LNCaP cells) |
| --- | --- | --- |
| CC(=O)N1CCc2c(c(N3CCCc4cc(-c5cnn(C)c5)c(C(F)F)cc43)nn2C2CCN(C(=O)CCCCNc3cccc4c3n(C)c(=O)n4C3CCC(=O)NC3=O)CC2)C1 (stereo not drawn) [P-128, 3-(4-((5-(4-(5-Acetyl-3-(7-(difluoromethyl)-6-(1-methyl-1H-pyrazol-4-yl)-3,4-dihydroquinolin-1(2H)-yl)-4,5,6,7-tetrahydro-1H-pyrazolo[4,3-c]pyridin-1-yl)piperidin-1-yl)-5-oxopentyl)amino)-3-methyl-2-oxo-2,3-dihydro-1H-benzo[d]imidazol-1-yl)piperidine-2,6-dione] | 20 to 50% | 244 nM |
| CC(=O)N1CCc2c(c(N3CCCc4cc(-c5cnn(C)c5)c(C(F)F)cc43)nn2C2CCN(C(=O)CCCCCCNc3ccc4c(c3)n(C)c(=O)n4C3CCC(=O)NC3=O)CC2)C1 (stereo not drawn) [P-130, 3-(5-((7-(4-(5-acetyl-3-(7-(difluoromethyl)-6-(1-methyl-1H-pyrazol-4-yl)-3,4-dihydroquinolin-1(2H)-yl)-4,5,6,7-tetrahydro-1H-pyrazolo[4,3-c]pyridin-1-yl)piperidin-1-yl)-7-oxoheptyl)amino)-3-methyl-2-oxo-2,3-dihydro-1H-benzo[d]imidazol-1-yl)piperidine-2,6-dione] | > 80% | 0.5 nM |
| CC(=O)N1CCc2c(c(N3CCCc4cc(-c5cnn(C)c5)c(C(F)F)cc43)nn2C2CCN(CCCCCCCc3cccc4c3C(=O)N(C3CCC(=O)NC3=O)C4=O)CC2)C1 (stereo not drawn) [P-132, 4-(7-(4-(5-Acetyl-3-(7-(difluoromethyl)-6-(1-methyl-1H-pyrazol-4-yl)-3,4-dihydroquinolin-1(2H)-yl)-4,5,6,7-tetrahydro-1H-pyrazolo[4,3-c]pyridin-1-yl)piperidin-1-yl)heptyl)-2-(2,6-dioxopiperidin-3-yl)isoindoline-1,3-dione] | 20 to 50% | 16.8 nM |
| CC(=O)N1CCc2c(c(N3CCCc4cc(-c5cnn(CC(=O)NCCCCCCCNc6ccc7c(c6)C(=O)N(C6CCC(=O)NC6=O)C7=O)c5)c(C(F)F)cc43)nn2C2CCOCC2)C1 (stereo not drawn) [P-133, 2-(4-(1-(5-acetyl-1-(tetrahydro-2H-pyran-4-yl)-4,5,6,7-tetrahydro-1H-pyrazolo[4,3-c]pyridin-3-yl)-7-(difluoromethyl)-1,2,3,4-tetrahydroquinolin-6-yl)-1H-pyrazol-1-yl)-N-(7-((2-(2,6-dioxopiperidin-3-yl)-1,3-dioxoisoindolin-5-yl)amino)heptyl)acetamide] | > 80% | 4 nM |

Results, then the molecule that gave them:

| inhibition at 0.01 µM (P300) | IC50 (LNCaP cells) | SMILES |
| --- | --- | --- |
| > 80% | 0.2 nM | CNC(=O)N1CCc2c(c(N3CCCc4cc(-c5cnn(C)c5)c(C(F)F)cc43)nn2C2CCN(C(=O)CCCCCCNc3ccc4c(c3)n(C)c(=O)n4C3CCC(=O)NC3=O)CC2)C1 (stereo not drawn) [P-129, 3-(7-(difluoromethyl)-6-(1-methyl-1H-pyrazol-4-yl)-3,4-dihydroquinolin-1(2H)-yl)-1-(1-(7-((1-(2,6-dioxopiperidin-3-yl)-3-methyl-2-oxo-2,3-dihydro-1H-benzo[d]imidazol-5-yl)amino)heptanoyl)piperidin-4-yl)-N-methyl-1,4,6,7-tetrahydro-5H-pyrazolo[4,3-c]pyridine-5-carboxamide] |
| > 80% | 14 nM | CC(=O)N1CCc2c(c(N3CCCc4cc(-c5cnn(C)c5)c(C(F)F)cc43)nn2C2CCN(C(=O)CN3CCC(CCc4cccc5c4C(=O)N(C4CCC(=O)NC4=O)C5=O)CC3)CC2)C1 (stereo not drawn) [P-131, 4-(2-(1-(2-(4-(5-acetyl-3-(7-(difluoromethyl)-6-(1-methyl-1H-pyrazol-4-yl)-3,4-dihydroquinolin-1(2H)-yl)-4,5,6,7-tetrahydro-1H-pyrazolo[4,3-c]pyridin-1-yl)piperidin-1-yl)-2-oxoethyl)piperidin-4-yl)ethyl)-2-(2,6-dioxopiperidin-3-yl)isoindoline-1,3-dione] |
